In article PMC9775433 (Cancers, 2022):
Where “and” joins values, the source holds several entries; their conditions need not be identical. Equal entries are not always repeated. Where two headings read alike, the source gives them in different places.

Tests used:
[1] = Skin drug concentration in skin biopsy at day 17 (LC-MS-MS); type: in vivo, human; details: individual patient; for concentration at 17 day: human, skin, oral, Skin - Sunitinib concentration
Method: All tissue samples were immediately snap frozen (within 1 min) in liquid nitrogen and cryopreserved at −80 °C until the day of analysis.
Tissue biopsies were weighed accurately before analysis. Tissue homogenate was prepared by using a mechanical homogenizer. The tumor tissue was homogenized with the precellys lysing kit (bertin instruments®) in the Roche MagNA lyzer®. […] Tissue homogenate samples were directly analyzed.
Supplementary data S2 – Methods (Details)
samples; using a validated liquid chromatography–tandem mass spectrometry (LC-MS-MS).
The system consisted of an Acquity H‐Class UPLC system, coupled to a Xevo TQ‐S micro
tandem mass spectrometer. […]

refractory solid tumors [2] = assay: Phase I trial outcome (PFS, OS); type: in vivo, human; details: individual patient
Method: All patients provided written informed consent before entering the study. The study was conducted in accordance with the Declaration of Helsinki and with the principles of the International Conference on Harmonization Guidelines for Good Clinical Practice. The study protocol was approved by the local institutional board and an independent Ethics Committee.
Patients continued treatment until progression, intolerance, or withdrawal of consent. The primary outcomes of the phase I clinical trial were described previously.
Efficacy was assessed in patients who completed at least two weeks of treatment. […] Statistical significance was set at p < 0.05. All statistical analyses were performed in SPSS, version 25.

CD31 = assay: Immunohistochemistry of tumor biopsies, CD31 (microvessel density); type: in vivo, human; details: 10 paired tumor biopsies, day 17
Method: (§1) Immunohistochemistry: Immunohistochemical staining was performed on 3–5 μm thick sections of the (freeze) tumor biopsies for CD3, CD31 and Ki67 according to standard methods (see Supplementary Data S2). Morphological characteristics were assessed in hematoxylin-eosin (H&E)-stained tissue sections. Evaluation of staining was performed by four investigators using light microscopy of serial tissue sections. […] Semi-quantification of CD31 staining was scored manually by a pathologist. The number of cells positive for CD3, CD31 was expressed as an estimated proportion of the total number of cells. […]
(§2) Finally, staining was
(§3) visualized with 3,3-diamino-benzidine-tetra hydrochloride (DAB), 0.3 mg/ml in 1 ml PBS
(§4) with 0.3 % H2O2. All slides were counterstained with hematoxylin.

Ki67 = assay: Immunohistochemistry of tumor biopsies, Ki67 (tumor cell proliferation); type: in vivo, human; details: 10 paired tumor biopsies, day 17
Method: as §1, §2, §3, §4

Food effect cohort = type: in vivo, human; details: 700 mg Q2W, fed versus fasted
refractory solid tumors [3] = test system: refractory solid tumors; set-up: method as in PMID 30586316; details: cited from earlier work
[4] = mice; cited from earlier work
[5] = cited from earlier work
[6] = CAM-assay, cited from earlier work
TNIK = test system: TNIK; set-up: method as in earlier work; details: cited from earlier work
MAP4K4 = test system: MAP4K4; set-up: method as in earlier work; details: cited from earlier work
CLK1 = test system: CLK1; set-up: method as in earlier work; details: cited from earlier work
RASSF3 = test system: RASSF3; set-up: method as in earlier work; details: cited from earlier work
FGFR-1 = test system: FGFR-1; set-up: method as in earlier work; details: cited from earlier work
AAK1 = test system: AAK1; set-up: method as in earlier work; details: cited from earlier work
Q6ZSR9 = test system: Q6ZSR9; set-up: method as in earlier work; details: cited from earlier work
PHKG2 = test system: PHKG2; set-up: method as in earlier work; details: cited from earlier work
RASSF5 = test system: RASSF5; set-up: method as in earlier work; details: cited from earlier work
LATS1 = test system: LATS1; set-up: method as in earlier work; details: cited from earlier work
CSNK1D = test system: CSNK1D; set-up: method as in earlier work; details: cited from earlier work
[7] = in vivo; cited from earlier work
[8] = standard daily schedule, three patients

Method: Food: An extra cohort was opened to evaluate the effect of food on the interpatient variation in bioavailability and to study whether concomitant intake with food could further increase the maximum plasma concentration (Cmax).
Patients were randomized to either start 700 mg
Geometric mean ratios (GMR) and 90% confidence intervals (CI) of the

Skin - Sunitinib concentration ([1]; 300 mg O2W): […] | concentration at 17 day ([1]; 400 mg, 400 mg O1W): […] | concentration at 17 day ([1]; 800 mg, 800 mg O2W): […] | effect of food on oral uptake (Food effect cohort): did not affect
SMILES: CCN(CC)CCNC(=O)c1c(C)[nH]c(/C=C2\C(=O)Nc3ccc(F)cc32)c1C [sunitinib]
